Assay results from patent US20120093947A1, “METHOD OF TREATING REACTIVE AIRWAY DISEASE” (UNITED STATES DEPARTMENT OF VETERANS AFFAIRS, priority 2009, published 2012).
Read-outs that look alike come from different tables or passages of the source.

Legend:
LPO [1] = biological target: T1, LPO (Bos taurus, UniProt P80025); experiment: Nitration of salbutamol by LPO/H2O2/NO2−, A410; format: biochemical, bovine; conditions: for Nitrophenols, (%) LPO: […] NaNO2, 4 mM H2O2, 65 nM LPO, pH 7.0, 10 min, ΔA410 versus control
T1 construct: Lactoperoxidase (LPO) from bovine milk (EC 1.11.1.7); purchased Sigma-Aldrich Co. (St. Louis, Mo.); host or cells: bovine milk (natural source)
Protocol: Spectrophotometric Measurements. Spectra are measured using an Agilent diode array spectrophotometer model 8453 (Agilent Technologies, Inc., Santa Clara, Calif.). Nitration of salbutamol is studied by measuring absorption spectra at designated time points following the start of the reaction. Samples are prepared in 100 mM phosphate buffers (pH 7.0). All buffers contained DTPA (100 μM) or are pretreated with Chelex-100 before use, and measurements are performed at ambient temperature of 20° C. Typically, the reaction is started by the addition of a small aliquot of H2O2 or the desired peroxidase. Time course measurements are carried out following changes in absorbance at 410 nm in 30 second intervals versus absorbance at 800 nm, where none of the compounds absorb.
Ascorbate (AscH^−) is an effective natural antioxidant protecting airways from oxidative injury. Cross et al., (1994) Environ. Health Perspect. 102 (suppl. 10):185-191. Its concentration in the respiratory tract lining fluid is estimated to be near 100 μM (Id.). We examine the effect of AscH^− on nitration of 100 μM salbutamol by 67 nM LPO, 4 mM H2O2, and 3.5 mM of NaNO2 by measuring absorption at 410 nm. […] The duration of the lag period depends on AscH^− concentration. […] See, e.g., Reszka et al. (1999) Free Radic. Biol. & Med. 26:669-678.
As noted earlier, methimazole is an antithyroid drug, an effective inhibitor of LPO activity. 100 μM of salbutamol is reacted with 73 nM LPO, 3.5 mM NaNO2, and 4 mM H2O2 at pH buffer 7.0 in the presence of 0, 27, 55, and 109 μM methimazole (shown in FIG. 9, section A, traces a-d, respectively). Traces c and d also indicate by arrow when additional LPO is added to the system. […] In contrast to effects exerted by AscH^− or SCN^−, methimazole-dependent inhibition is permanent and is probably due to inactivation of the enzyme, since a second dose of LPO reactivates the process (FIG. 9, section A, trace c).
Dapsone, an anti-inflammatory and anti-leprotic agent, is a potent inhibitor of LPO and MPO. See, e.g., Kettle et al. (1991) Biochem. Pharmacol. 41(10):1485-1492; Bozeman et al. (1992) Biochem. Pharmacol. 44(2):553-563. 97 μM of salbutamol is reacted with 65 nM LPO, 3.4 mM NaNO2, and 4 mM H2O2 at pH buffer 7.0 in the presence of 0, 2.5, 5, 10, 50, and 100 μM dapsone (shown in FIG. 10, traces a-f, respectively). The arrows in traces d and e of FIG. 10 indicate where additional LPO is added to the system. […] Dapsone at 50 μM inhibited nitration by approximately 86%. Given the high concentrations of NaNO2 and H2O2 used in this system, dapsone appears to be a potent blocker of nitration.
The extent of nitration is expressed as a change in ΔA410 versus control (dapsone omitted) taken as 100% after 10, 30, and 60 minute reactions for LPO, MPO, and EPO nitrating systems, respectively. Results equal the means±SE of at least two measurements. In the LPO system, 100 μM of salbutamol, 3.4 mM of NaNO2, 4 mM of H2O2, and 65 nM of LPO is used. In the MPO system, 50 μM of salbutamol, 5.0 mM of NaNO2, 5 mM of H2O2, and 0.2 U/mL of MPO is used. In the EPO system, 50 μM of salbutamol, 5 mM of NaNO2, 2 mM of H2O2, and 0.075 U/mL of EPO is used. All reactions were carried out in pH 7.0 phosphate buffer containing DMSO (5% v/v). The term “nitrophenols” includes nitrosalbutamol (N-Sal) and salbutamol-derived nitrophenol (N—ArOH).

LPO [2] = biological target: T1, LPO; experiment: EPR of MNP adducts with radicals from β2-agonists generated by LPO/H2O2; format: biochemical, bovine; conditions: pH 8.0
Protocol: Formation of free radicals from β2-agonists is studied in samples prepared in 100 mM phosphate buffer (pH 7.0 and 8.0)/DTPA (0.2 mM) (total volume 250 μL) containing MNP, MPO (or LPO) and the agonists. The reaction is initiated by the addition of H2O2 as the last component. In experiments in which H2O2 was generated using glucose (1 mM) and glucose oxidase (3.9 μg/mL), glucose oxidase is added as a last component. The sample is transferred to a flat aqueous EPR cell and recording is started 1 minute after initiation of the reaction. Typically, spectra of MNP adducts are recorded using microwave power 20 mW, modulation amplitude 0.1 mT, receiver gain 2×10^5, conversion time 40.96 ms, time constant 81.92 ms, and scan rate of 10 mT/41.92 s. EPR spectra constitute an average of 5 scans and represent results of typical experiments. Unless stated otherwise, direct EPR measurements (spin traps omitted) of free radicals derived from β2-agonists are performed using conditions similar to those for the detection of MNP adducts. EPR spectra are simulated using WINSIM software developed at NIEHS/NIH (RTP, NC).
The effect of methimazole and dapsone on the formation of free radicals from drugs is studied in phosphate buffers (pH 7.0 and 8.0) containing DTPA (0.2 mM) and MNP (10 mM in dimers). Oxidation is carried out by MPO (0.43 units/mL)/H2O2 (37 μM) and LPO (0.39 μM)/glucose (1 mM)/glucose oxidase (0.8 μg/mL). […]
Table 3, below, summarizes the effects of dapsone and methimazole on EPR spectra of MNP adducts with radicals from fenoterol and terbutaline generated by MPO/H2O2 and LPO/H2O2 systems at a pH of 8.0. Concentrations of MNP spin adducts were calculated as second integrals of the low-field component of the respective spectra and are expressed as % of control samples (no additives). Results equal the means±SE of at least two measurements.
. […] This is consistent with the known inhibitory action of both methimazole and dapsone on LPO activity and only methimazole on MPO activity. Thomas et al. (1994) J. Dent. Res. 73(2):544-55. Results obtained at pH 7.0 qualitatively agree with those at pH 8.0.

Nitrophenols, (%) LPO (LPO [1]; dapsone 2.5 μM, 100 μM salbutamol) [%]	Nitrophenols, (%) LPO (LPO [1]; dapsone 5.0 μM, 100 μM salbutamol) [%]	Nitrophenols, (%) LPO (LPO [1]; dapsone 10.0 μM, 100 μM salbutamol) [%]	inhibition at 50 µM (LPO [1]; dapsone 50 μM, 97 μM salbutamol, 65 nM LPO, 3.4 mM NaNO2, 4 mM H2O2, pH 7.0) [%]	Nitrophenols, (%) LPO (LPO [1]; dapsone 50.0 μM, 100 μM salbutamol) [%]	Concentration of MNP spin adducts, Fenoterol, +LPO + H2O2, % of control (LPO [2]; fenoterol 0.047 mM, inhibitor 1 mM, reagent H2O2 37 μM)	remaining activity at 1000 µM (LPO [2]; fenoterol 0.047 mM, inhibitor 1 mM, reagent H2O2 37 μM, read-out: Concentration of MNP spin adducts, Fenoterol, +LPO + H2O2, % of control) [%]	Concentration of MNP spin adducts, Terbutaline, +LPO + H2O2, % of control (LPO [2]; terbutaline 0.047 mM, inhibitor 1 mM, reagent H2O2 37 μM)	remaining activity at 1000 µM (LPO [2]; terbutaline 0.047 mM, inhibitor 1 mM, reagent H2O2 37 μM, read-out: Concentration of MNP spin adducts, Terbutaline, +LPO + H2O2, % of control) [%]	Nitration of salbutamol by LPO/H2O2/NO2− (A410 versus time) (LPO [1]; methimazole close to 100 μM (109 μM), 100 μM salbutamol, 73 nM LPO, 3.5 mM NaNO2, 4 mM H2O2, pH 7.0)	Concentration of MNP spin adducts, Fenoterol, +LPO + H2O2, % of control (LPO [2]; fenoterol 0.47 mM, inhibitor 0.86 mM, H2O2 from glucose 1 mM/glucose oxidase 0.8 μg/mL)	remaining activity at 860 µM (LPO [2]; fenoterol 0.47 mM, inhibitor 0.86 mM, H2O2 from glucose 1 mM/glucose oxidase 0.8 μg/mL, read-out: Concentration of MNP spin adducts, Fenoterol, +LPO + H2O2, % of control) [%]	Concentration of MNP spin adducts, Terbutaline, +LPO + H2O2, % of control (LPO [2]; terbutaline 0.47 mM, inhibitor 0.86 mM, H2O2 from glucose 1 mM/glucose oxidase 0.8 μg/mL)	remaining activity at 860 µM (LPO [2]; terbutaline 0.47 mM, inhibitor 0.86 mM, H2O2 from glucose 1 mM/glucose oxidase 0.8 μg/mL, read-out: Concentration of MNP spin adducts, Terbutaline, +LPO + H2O2, % of control) [%]	SMILES
72.8 ± 2.0	58.4 ± 1.4	45.7 ± 2.0	~86	14.0 ± 2.7	markedly inhibit	13.9 ± 0.6	markedly inhibit	54.6 ± 20	–	–	–	–	–	Nc1ccc(S(=O)(=O)c2ccc(N)cc2)cc1 [Dapsone, diamino-diphenyl sulfone]
–	–	–	–	–	–	–	–	–	completely prevents	markedly inhibit	26.9 ± 8.2	markedly inhibit	33.9	Cn1cc[nH]c1=S [Methimazole, 1-methyl-3H-imidazole-2-thione]
